# The source made the active and inactive calls.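 The calls were made as follows: active = IC50 at or below 10 µM; inactive = IC50 above 10 µM.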
# Target: Induced myeloid leukemia cell differentiation protein Mcl-1 (Homo sapiens) (UniProt Q07820)
# Assay: MCL1 binding to BIM-BH3 peptide, inhibitors, late-stage follow-up, biochemical, fluorescence polarization, assay provider data, powder samples (AID 493086)
# Details: GST-MCL1 / FITC-BIM-BH3 fluorescence polarization
# Induced myeloid leukemia cell differentiation protein Mcl-1 (Homo sapiens), sequence (Q07820 whole entry, looked up): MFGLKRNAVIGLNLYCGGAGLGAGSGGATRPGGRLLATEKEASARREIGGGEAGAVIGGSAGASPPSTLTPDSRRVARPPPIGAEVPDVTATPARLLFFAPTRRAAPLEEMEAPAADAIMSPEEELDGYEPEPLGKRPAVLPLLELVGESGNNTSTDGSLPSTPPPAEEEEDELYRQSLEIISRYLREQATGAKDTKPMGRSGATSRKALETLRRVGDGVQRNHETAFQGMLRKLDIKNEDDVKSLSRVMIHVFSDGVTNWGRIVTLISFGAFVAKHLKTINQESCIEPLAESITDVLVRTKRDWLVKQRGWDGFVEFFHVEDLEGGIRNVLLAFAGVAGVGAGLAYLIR
row,SMILES,IC50
1,CN(CCOc1ccccc1)C(=O)c1cc(-c2ccco2)nc2ccccc12,> 20 µM (inactive)
2,COc1ccc(Cc2nnc(NC(=O)C(=O)c3ccco3)s2)cc1OC,> 20 µM (inactive)
3,COc1ccc(Cc2nnc(NC(=O)Cc3ccc(-c4ccccc4)cc3)s2)cc1OC,> 20 µM (inactive)
4,CCCCN(C(=O)c1cc(-c2ccco2)nc2ccccc12)c1c(N)n(CCC)c(=O)[nH]c1=O,> 20 µM (inactive)
5,Cc1ccc(-c2cc(C(=O)N3CCCC(C(F)(F)F)C3)c3ccccc3n2)o1 (configuration not stated),> 20 µM (inactive)
6,COc1ccc(NC(=O)c2cc(-c3ccc(C)o3)nc3ccccc23)cc1OC,> 20 µM (inactive)
7,COc1ccc(Cc2nnc(NC(=O)Cc3cccs3)s2)cc1OC,> 20 µM (inactive)
8,COc1ccc(Cc2nnc(NC(=O)Cc3csc4ccccc34)s2)cc1OC,> 20 µM (inactive)

# Results, then the molecule that gave them:
row,IC50,SMILES
1,inactive,CCc1nnc(NC(=O)c2cc(-c3ccco3)nc3ccccc23)s1
2,5.5 µM,CCOC(=O)C1CCCN(C(=O)c2cc(-c3ccco3)nc3ccccc23)C1 (configuration not stated)
3,inactive,Cc1ccc(NC(=O)c2cc(-c3ccc(C)o3)nc3ccccc23)nc1
4,> 20 µM (inactive),O=C(Nc1cccc(F)c1)c1cc(-c2ccco2)nc2ccccc12
